Data: PubChem BioAssay (NCI)
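A five-concentration, 48-hour dose response in 96-well plates underlies each endpoint, interpolated linearly between surrounding concentrations. GI50 marks 50% less growth. Definition used: TGI = concentration required for complete inhibition of growth.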

What was measured:
Assay in all cases: DTP human tumour cell line panel, 48 h
[1] = tested on: MOLT-4 leukemia
[2] = tested on: SF-295 CNS
[3] = tested on: NCI-H23 lung
[4] = tested on: SF-539 CNS
[5] = tested on: LOX IMVI melanoma
[6] = tested on: UO-31 renal
[7] = tested on: SNB-19 CNS
[8] = tested on: HT29 colon
[9] = tested on: HL-60(TB) leukemia
[10] = tested on: CAKI-1 renal

| SMILES | TGI [1] | TGI [2] | TGI [3] | TGI [4] | TGI [5] | TGI [6] | TGI [7] | TGI [8] | TGI [9] | TGI [10] | GI50 [1] | GI50 [10] | GI50 [2] | GI50 [3] | GI50 [4] | GI50 [5] | GI50 [6] | GI50 [7] | GI50 [8] | GI50 [9] |
| --- | --- | --- | --- | --- | --- | --- | --- | --- | --- | --- | --- | --- | --- | --- | --- | --- | --- | --- | --- | --- |
| COC(=O)/C(=N\NC(N)=S)C(C#N)c1ccccc1 (configuration not stated) | > 100 µM | > 100 µM | > 100 µM | > 100 µM | > 100 µM | > 100 µM | > 100 µM | > 100 µM | > 100 µM |  |  |  |  |  |  |  |  |  |  |  |
| Cc1cc([N+](=O)[O-])c(C)c(Br)c1C |  | > 100 µM | > 100 µM | > 100 µM |  | > 100 µM | > 100 µM | > 100 µM |  | > 100 µM |  |  |  |  |  |  |  |  |  |  |
| Cc1ccc(C(C)C)cc1NC(=O)Nc1ccc([N+](=O)[O-])cc1 | 4.63 µM | 5.11 µM | 7.97 µM | 7.89 µM | 4.82 µM | 5.79 µM | 12 µM | 10.2 µM |  | 5.62 µM | 2.13 µM | 2.1 µM | 1.84 µM | 2.49 µM | 2.57 µM | 1.99 µM | 1.54 µM | 2.99 µM | 3.2 µM |  |
| C/C(CC(=O)N(C(C)C)C(C)C)=N\NC(=O)c1ccncc1 | > 100 µM | > 100 µM | > 100 µM | > 100 µM | > 100 µM | > 100 µM | > 100 µM | > 100 µM | > 100 µM |  |  |  |  |  |  |  |  |  |  |  |
| CC1=C(C(=O)Nc2ccc(Cl)c(Cl)c2)C(c2ccccc2O)NC(=O)N1 (configuration not stated) | > 50 µM | > 50 µM |  | > 50 µM | > 50 µM | > 50 µM | > 50 µM |  | > 50 µM | > 50 µM | > 50 µM | > 50 µM | 40.3 µM |  | 43.7 µM | 33.4 µM | > 50 µM | > 50 µM |  | > 50 µM |
| Cc1cc(C(O)CN(C)C)cc2c1ccc1cc(C(C)C)ccc12 (configuration not stated) | 5.22 µM | 3.54 µM | 10.6 µM | 3.59 µM |  | 3.72 µM | 4.75 µM | 3.62 µM | 4.08 µM | 3.11 µM | 2.16 µM | 1.42 µM | 1.85 µM | 2.85 µM | 1.98 µM |  | 1.58 µM | 2.07 µM | 1.56 µM | 1.89 µM |
| N#CC1C=Cc2ccccc2N1C(=O)Oc1ccccc1 (configuration not stated) | 93.8 µM |  | > 100 µM | > 100 µM | > 100 µM | > 100 µM | > 100 µM | > 100 µM | 48.6 µM | > 100 µM |  |  |  |  |  |  |  |  |  |  |
| COc1ccc(OC)c2c3c(ccc12)C(c1ccccc1)OC3=O (configuration not stated) | 99.7 µM | > 100 µM | > 100 µM |  | > 100 µM | > 100 µM | > 100 µM | > 100 µM | > 100 µM | > 100 µM |  |  |  |  |  |  |  |  |  |  |
| CC(C)C(=O)Oc1cc2c(=O)oc3c(OC(=O)C(C)C)c(OC(=O)C(C)C)cc4c(=O)oc(c1OC(=O)C(C)C)c2c34 | > 100 µM | > 100 µM | > 100 µM | > 100 µM | > 100 µM | > 100 µM | > 100 µM | > 100 µM |  | > 100 µM |  |  |  |  |  |  |  |  |  |  |
| C[C@@H]1C[C@]2(C[C@@H](C)C3[C@@H](CC4(C)[C@@H]5CCC6C(C)(C)OC(=O)C=C[C@]67C[C@@]5(CC[C@]34C)OO7)O2)OC1=O (some centres not stated) |  | > 100 µM | > 100 µM | > 100 µM | > 100 µM | > 100 µM | > 100 µM | > 100 µM | > 100 µM |  |  |  |  |  |  |  |  |  |  |  |
| CC(=O)Oc1ccc2c(c1)CC[C@@H]1C2CC[C@]2(C)C(=O)NC(=O)CC12 (some centres not stated) | > 100 µM | > 100 µM | > 100 µM | > 100 µM |  | > 100 µM | > 100 µM | > 100 µM | > 100 µM | > 100 µM |  |  |  |  |  |  |  |  |  |  |
| Cc1nc(-n2nc(-c3ccccc3)cc2-c2ccccc2)sc1C(/C=C/c1ccc([N+](=O)[O-])cc1)=N/NC(=O)c1ccncc1 | 43.4 µM | > 100 µM | 40.6 µM | 41.5 µM | 48.8 µM | 90.4 µM | > 100 µM | > 100 µM | 36.7 µM |  |  |  |  |  |  |  |  |  |  |  |
| CO[C@@]12[C@@H]3NC3CN1C1=C(C(=O)C(N)=C(C)C1=O)[C@@H]2COC(N)=O (some centres not stated) |  |  | 1.46 µM |  | 2.06 µM | 3.04 µM |  | 5.24 µM | 7.43 µM | 2.08 µM | 0.278 µM |  |  |  |  |  | 0.465 µM |  |  | 0.0862 µM |
| CCCCCCCCCCCCCCCCOC(=O)c1cc(O)cc(C(=O)OCCCCCCCCCCCCCCCC)c1 | > 100 µM | > 100 µM | > 100 µM |  | > 100 µM | > 100 µM | > 100 µM | > 100 µM | > 100 µM | > 100 µM |  |  |  |  |  |  |  |  |  |  |
| O=C1c2ccccc2C(=O)c2nc3ccc(Cl)cc3cc21 | > 100 µM | > 100 µM | > 100 µM | > 100 µM | > 100 µM | > 100 µM | > 100 µM | > 100 µM |  | > 100 µM |  |  |  |  |  |  |  |  |  |  |
| CCSC(SCC)=C1C(=O)N(c2ccccc2)N=C1C | 23.4 µM | 73.5 µM | 34.9 µM |  | 26.4 µM | 29 µM | 62.8 µM | 39.4 µM | 7.35 µM | 15.8 µM |  |  |  |  |  |  |  |  |  |  |
| COc1ccc(CCN=C2CCC(C(=O)NCCc3ccc(OC)c(OC)c3)N2)cc1OC (configuration not stated) | > 100 µM | > 100 µM | > 100 µM |  | > 100 µM | > 100 µM | > 100 µM | > 100 µM | > 100 µM | > 100 µM |  |  |  |  |  |  |  |  |  |  |
| CCN(CC)CCN(C(=O)C(C)(C)C)c1ccccc1N | > 100 µM | > 100 µM | > 100 µM | > 100 µM |  | > 100 µM | > 100 µM | > 100 µM | > 100 µM | > 100 µM |  |  |  |  |  |  |  |  |  |  |
| C[C@]12CC[C@H](OC3CCCCO3)CC1=CC[C@@H]1C2CC[C@]2(C)/C(=N/O)CCC12 (some centres not stated) | 48.9 µM | 34.9 µM | 39.1 µM | > 100 µM | 27.5 µM | > 100 µM | 67.1 µM | 26.8 µM |  | > 100 µM |  |  |  |  |  |  |  |  |  |  |
| COc1nc(NC2OC(COC(C)=O)C(OC(C)=O)C(OC(C)=O)C2OC(C)=O)c(-c2csc(N)n2)c(=O)n1C (configuration not stated) | > 100 µM | > 100 µM | > 100 µM | > 100 µM | > 100 µM | > 100 µM | > 100 µM | > 100 µM |  | > 100 µM |  |  |  |  |  |  |  |  |  |  |
